Results taken from patent US20200181709A1, “METHODS OF DETECTION AND TREATMENT OF UROTHELIAL CANCER” (THE JOHNS HOPKINS UNIVERSITY, priority 2015, published 2020).
“Also recorded” adds a separate entry of the source.

Assays:
[1] = tested on: CCND2 expression in UCC cell lines; test: Q-RT-PCR of CCND2 expression after 5-aza-dc and/or TSA treatment of UCC cell lines; format: cell-based; settings: 5 μM 5-aza-dc for 5 days, vs PBS control
Method: (§1) UCC cells were seeded in 75 cm2 culture flasks at a density of […] and incubated at 37° C. in 5% CO2/95% air overnight. Cells were then treated with 5μM of 5-aza-dc (Sigma Chemical, Sigma, USA) for 5 days. […] Additionally, combination treatment with 5-aza-dc and TSA was performed by adding 5μM of 5-aza-dc daily for 5 days and TSA (300 nmol/L; Sigma) was added to the medium for the final 24 hours. […] PBS (phosphate buffered saline) alone was used as a control to exclude non-specific solvent effects on cells. All experiments were run independently twice. RNA was extracted using Qiazol Lysis reagent (Qiagen, Valencia, Calif.) according to the manufacturer's instructions. One microgram of total RNA was used for cDNA conversion using the Quantitect Reverse Transcription Kit (Qiagen, Valencia, Calif.), following manufacturer's protocol. Q-RT-PCR was performed using the SYBR Green chemistry in a 7900HT Real-Time PCR System (Applied Biosystems, Foster City, CA). […] The RT-PCR primer sequences are available in Supplementary Table 2B. […] Quantitative reverse transcriptase PCR was performed to determine whether promoter methylation of CCNA1 and CCND2 inversely correlated with their expression. […]

[2] = tested on: CCNA1 expression in UCC cell lines; test: Q-RT-PCR of CCNA1 expression after 5-aza-dc and/or TSA treatment of UCC cell lines; format: cell-based; settings: SW780 and J82 cell lines; 5 μM 5-aza-dc for 5 days; vs PBS control
Method: as §1

Structure (SMILES): Nc1ncn([C@H]2C[C@H](O)[C@@H](CO)O2)c(=O)n1 [5-aza-dc, 5-aza-deoxycytidine]
- CCND2 expression (real-time RT-PCR) ([1]; HT1376 cell line): overexpression was observed after 5-aza-dc treatment only (not significant)
- CCND2 expression (real-time RT-PCR) ([1]; UMUC-3, J82 and T24 cell lines): Reactivation of CCND2 was observed
- CCNA1 expression (real-time RT-PCR) [2]: re-expression of CCNA1; also recorded: Reactivation of CCNA1 was observed
